Test system: dental ulcer of the patient
Test: Dental treatment: solution sprayed onto dental ulcer of a patient, pain relief
Format: in vivo, human
Conditions: 1 mg/mL solution in normal saline
Experimental: A 1 mg/mL solution of the title compound of Example 1 was prepared in normal saline.
The resultant solution was sprayed using a standard spray device onto the dental ulcer of the patient. Pain relief occurred within 1 minute. The duration of pain relief was about 3 hours.

Substance: Ala-Lys-Pro-Ser-Tyr-Hyp-Thr-Tyr-Hyp-Lys-Procaine [Example 1]
- Duration of pain relief: about 3 hours
- Time to occurrence of pain relief: ≤ 1 min

— US20240165247A1, “NEW PEPTIDE CONJUGATES” (JIANGYIN USUN PHARMACEUTICAL CO., LTD., priority 2021, published 2024)
